The target in one series is T1, platelet COX-1 (Homo sapiens, UniProt P23219).
T1 construct: 1 ml aliquots of whole blood were immediately transferred into glass test tubes and left to coagulate at 37° C; endogenous in cells; host or cells: platelets in whole blood of healthy human volunteers
Kind of series: Biosynthesis of TXB2 in human whole blood left to coagulate, index of platelet COX-1 activity. To be noted: human whole blood method, coagulation 1 hour at 37° C., TXB2 by RIA. Type of series: cell-based.

The target of series [1] is T2, monocyte COX-2 induced by LPS (Homo sapiens, UniProt P35354).
T2 construct: incubated with heparinised whole blood in the presence of LPS (10 microg/ml) for 24 hours at 37° C; endogenous in cells; host or cells: LPS-stimulated monocytes in heparinised whole blood of healthy human volunteers
T2 sequence (P35354 18-604): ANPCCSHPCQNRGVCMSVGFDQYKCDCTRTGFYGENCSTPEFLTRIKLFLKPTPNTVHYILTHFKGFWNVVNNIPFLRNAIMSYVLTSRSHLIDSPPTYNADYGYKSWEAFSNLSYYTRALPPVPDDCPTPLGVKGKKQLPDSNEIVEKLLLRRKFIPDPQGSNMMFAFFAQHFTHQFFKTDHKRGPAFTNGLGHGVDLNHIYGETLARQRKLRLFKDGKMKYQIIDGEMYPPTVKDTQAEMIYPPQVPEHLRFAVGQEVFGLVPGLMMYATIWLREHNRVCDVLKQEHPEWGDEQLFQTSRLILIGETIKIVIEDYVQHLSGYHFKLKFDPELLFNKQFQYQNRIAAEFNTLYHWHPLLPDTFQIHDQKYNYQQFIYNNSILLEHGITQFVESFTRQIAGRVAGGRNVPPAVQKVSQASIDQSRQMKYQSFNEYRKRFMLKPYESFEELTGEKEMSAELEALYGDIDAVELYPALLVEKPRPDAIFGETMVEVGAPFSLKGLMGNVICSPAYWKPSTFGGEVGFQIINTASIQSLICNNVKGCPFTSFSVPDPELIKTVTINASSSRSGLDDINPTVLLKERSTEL
Kind of series: Biosynthesis of PGE2 in LPS-stimulated human whole blood, index of monocyte COX-2 activity. As to conditions: human whole blood method, 24 hours at 37° C.; for IC50: LPS 10 microg/ml, PGE2 by RIA. The format is cell-based.
Experimental: (§1) Fourteen healthy volunteers (25-34 years) were enrolled to take part in the study and were studied on various occasions. Peripheral venous blood samples were taken from donors who had not taken FANS in the 2 weeks prior to the study.
Biosynthesis of PGE2 in the Whole Blood as an Index of Monocyte COX-2 Activity Induced by LPS.
Aliquots of 1 ml of whole blood taken from the cubital vein with a syringe containing heparin (20 IU/ml blood) were incubated with lipopolysaccharide (LPS, from Escherichia coli 026:B6; Sigma Chemical Company, St. Louis, Mo.) (10 μg/ml) for 24 hours at 37° C. The plasma was separated by centrifugation and kept at −70° C. The PGE2 was measured with a specific radioimmunological assay (RIA) as an index of monocyte COX-2 activity induced by LPS.

The conditions of series [2]: secondary prevention, various groups of patients; cited from earlier work.

The structures appear in SMILES notation. Bounds are passed on as bounds.

T1 sequence (P23219 24-599): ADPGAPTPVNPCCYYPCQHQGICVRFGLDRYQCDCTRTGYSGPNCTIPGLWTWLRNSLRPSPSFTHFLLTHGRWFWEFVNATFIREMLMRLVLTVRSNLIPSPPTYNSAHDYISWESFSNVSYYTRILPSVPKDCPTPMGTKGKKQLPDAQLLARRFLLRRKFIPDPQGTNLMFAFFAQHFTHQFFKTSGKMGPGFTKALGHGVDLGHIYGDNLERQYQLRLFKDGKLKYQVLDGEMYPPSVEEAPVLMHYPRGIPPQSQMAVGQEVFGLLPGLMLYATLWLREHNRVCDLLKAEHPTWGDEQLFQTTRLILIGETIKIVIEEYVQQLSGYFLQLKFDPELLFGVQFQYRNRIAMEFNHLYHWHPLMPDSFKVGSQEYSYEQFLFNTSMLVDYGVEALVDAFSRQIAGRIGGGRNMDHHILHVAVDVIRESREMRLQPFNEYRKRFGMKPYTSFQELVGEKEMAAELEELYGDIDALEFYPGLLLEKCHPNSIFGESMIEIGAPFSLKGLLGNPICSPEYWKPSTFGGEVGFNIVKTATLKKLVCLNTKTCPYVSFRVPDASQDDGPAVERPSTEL
Experimental for platelet COX-1: as §1
1 ml aliquots of whole blood were immediately transferred into glass test tubes and left to coagulate at 37° C. for 60 minutes.

On to `CC1(O)ON=C(c2ccc(Cl)o2)C1c1ccc(F)cc1` (stereo not drawn) [Example 2, 3-(5-Chlorofuran-2-yl)-4-(4-fluorophenyl)-5-hydroxy-5-methyl-2-isoxazoline], for which the melting point was in the range of 101 to 102 °C.

Consider `FC(F)(F)c1onc(-c2ccc(Cl)o2)c1-c1ccccc1` [Example 5, 3-(5-Chlorofuran-2-yl)-4-phenyl-5-(trifluoromethyl)isoxazole], for which the melting point is 55 to 57 °C. The half-maximal inhibitory concentration (IC50) on platelet COX-1 was determined as 810 nM. In addition, the IC50 in series [1] was more than 100 µM.

Compound `Cc1onc(-c2ccc(Cl)o2)c1-c1ccc(F)cc1` [Example 6, 3-(5-Chlorofuran-2-yl)-4-(4-fluorophenyl)-5-methylisoxazole] showed a melting point of 103.7 to 105.2 °C. This compound came in with an IC50 against platelet COX-1 of 1900 nM. For the same compound, in series [1], the IC50 is more than 100 µM.

As to `Cc1onc(-c2ccc(Cl)o2)c1-c1ccccc1F` [Example 7, 3-(5-Chlorofuran-2-yl)-4-(2-fluorophenyl)-5-methylisoxazole], the concentration for half-maximal inhibition (IC50) on platelet COX-1 is 1900 nM; in series [1], more than 100 µM.

For the compound `Cc1onc(-c2ccco2)c1-c1ccccc1` [Example 12, 3-(Furan-2-yl)-4-phenyl-5-methylisoxazole], the melting point was in the range of 93 to 96 °C.

With `Cc1onc(-c2ccc(Br)o2)c1-c1ccccc1` [Example 14, 3-(5-Bromofuran-2-yl)-4-phenyl-5-methylisoxazole], the melting point was 93 to 96 °C.

As to `O=C(O)c1onc(-c2ccc(Cl)o2)c1-c1ccccc1` [Example 15, [3-(5chlorofuran-2-yl)-4-phenylisoxazol-5-yl]carboxylic acid], the melting point is 168 to 170 °C.

Turning to `COC(=O)c1onc(-c2ccc(Cl)o2)c1-c1ccccc1` [Example 16, Methyl [3-(5-chlorofuran-2-yl)-4-phenylisoxazol-5-yl]carboxylate], the melting point is 130 to 131 °C.

On to `OCc1onc(-c2ccc(Cl)o2)c1-c1ccccc1` [Example 17, 3-(5-Chlorofuran-2-yl)-4-phenyl-5-hydroxymethylisoxazole], for which the melting point is 102 to 103 °C. Half-maximal inhibition against platelet COX-1 (IC50) required 4200 nM. The inhibition at 100 µM in series [1] (100 μM, LPS, read-out: COX-2 inhibition (I) at 100 μM) was 44%.

In the case of `CC(=O)OCc1onc(-c2ccc(Cl)o2)c1-c1ccccc1` [Example 18, 5-Acetoxymethyl-3-(5-chlorofuran-2-yl)-4-phenylisoxazole], the IC50 was 5200 nM at platelet COX-1 and more than 100 µM in series [1].

As for `O=C(OCCCN1CCOCC1)c1onc(-c2ccc(Cl)o2)c1-c1ccccc1` [Example 19, 3-(Morpholin-1-yl)propyl[3-(5-chlorofuran-2-yl)-4-phenylisoxazol-5-yl]carboxilate], the melting point fell in the range of 82 to 83.7 °C.

In turn, `O=C(OCCCBr)c1onc(-c2ccc(Cl)o2)c1-c1ccccc1` [Example 20, 3-Bromopropyl[3-(5-chlorofuran-2-yl)-4-phenylisoxazol-5-yl]carboxylate] returned a melting point of 100 to 101 °C.

With `O=C(OCCCO[N+](=O)[O-])c1onc(-c2ccc(Cl)o2)c1-c1ccccc1` [Example 21, 3-(Nitroxy)propyl[3-(5-chlorofuran-2-yl)-4-phenylisoxazol-5-yl]carboxylate], the melting point fell in the range of 79 to 79.8 °C.

As for `COC(=O)c1c(-c2ccc(Cl)o2)noc1-c1ccccc1` [Example 22, Methyl3[-(5-chlorofuran-2-yl)-5-phenylisoxazol-4-yl]carboxylate], the melting point was 113 to 117 °C (dec.).

With `CC(=O)Oc1ccccc1C(=O)O` [aspirin, acetylsalicylic acid], in series [2], the “prevention of non fatal vascular events” value was 25-30% and the “prevention of vascular death” value was 15-20%.

Source of the values: patent publication US7989450B2, “Functionalized diarylisoxazoles inhibitors of ciclooxygenase” (Universita' Degli Studi Di Bari, priority 2008, dated 2011).
